# Data taken from BindingDB's records for patent US11708351 (Achillion Pharmaceuticals, 2023).
# Molecular target: Complement factor D (Homo sapiens, UniProt P00746)
# Assay: Human Factor D Assay
# Experimental: Human Factor D (purified from human serum, Complement Technology, Inc.) at 80 nM final concentration is incubated with test compound at various concentrations for 5 min at room temperature in 50 mM Tris, 1M NaCl, pH 7.5. A synthetic substrate Z-L-Lys-SBzl and DTNB (Ellman's reagent) are added to final concentrations of 100 μM each. Absorbance at 405 nm (A405) is recorded at 30 second intervals for 30 min using a microplate spectrophotometer. IC50 values are calculated by nonlinear regression of complement Factor D reaction rates as a function of test compound concentration.
# Chain of Complement factor D (P00746 whole entry): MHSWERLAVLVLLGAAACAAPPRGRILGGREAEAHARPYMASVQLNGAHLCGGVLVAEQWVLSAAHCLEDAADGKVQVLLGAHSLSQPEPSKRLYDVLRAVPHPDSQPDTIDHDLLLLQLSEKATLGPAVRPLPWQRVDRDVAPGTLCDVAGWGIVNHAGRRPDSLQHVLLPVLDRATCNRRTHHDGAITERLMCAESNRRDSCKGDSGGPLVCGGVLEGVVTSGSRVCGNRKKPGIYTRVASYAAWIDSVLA
smiles,measurement,value
"CC(=O)c1nn(CC(=O)N2[C@@H](C(=O)Nc3nc(Br)ccc3C)C[C@@]3(C)C[C@@H]23)c2ccc(-c3cnc(C)nc3)cc12 [US11708351, Compound 279]",IC50,> 10 µM
